Measured values reported in patent US11629171B2, “Beta-hairpin peptidomimetics” (POLYPHOR AG, priority 2017, dated 2023).
≈ marks a conversion by molar mass, not a printed value. Where a SMILES comes first, the peptide text is derived from it. Bridges are numbered along the chain shown (N, C = ends). Roman numbers before positions name the chains, in order. [ ]: non-standard residue; d: D form. The star is where a group is joined. Leu(3R-OH) = CC(C)[C@@H](O)[C@H](N)C(=O)O; Tle = CC(C)(C)[C@H](N)C(=O)O; Hiv = CC(C)[C@H](O)C(=O)O; dDab = NCC[C@@H](N)C(=O)O; hSer = N[C@@H](CCO)C(=O)O; NHCH(CH2OH)2 = OCC(CO)N*; Nle = CCCC[C@H](N)C(=O)O; Orn = NCCC[C@H](N)C(=O)O; Dab = NCC[C@H](N)C(=O)O; Dap = NC[C@H](N)C(=O)O; OiPr = CC(C)O*

Assays:
Format in all cases: cell-based
[1] = tested on: human red blood cells (hRBC); assay: Hemolysis; conditions: red cells of human, 1 h, 200
Procedure, shortened: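 Percent hemolysis relative to 2% Triton X-100 (100%) and PBS/10% water (0%), from blank-corrected OD540 of diluted supernatants. Peptides tested at 200 μg/mL against 20% (v/v) washed human erythrocytes, 1 h, 37° C, shaking at 300 rpm.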

Escherichia coli 926415 = conditions: 926415
Procedure, shortened: (§1)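 Peptides are tested in serial two-fold dilutions against about 10^6 CFU/mL in MH-II broth containing 0.002% P-80 (v/v, final). Plates incubate 18-20 h at 35° C, and the MIC is the lowest peptide level (μg/mL) showing no visible growth.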

[2] = tested on: Acinetobacter baumannii 872842; conditions: 872842
Procedure, shortened: as §1

[3] = tested on: Klebsiella pneumoniae 968733; conditions: 968733
Procedure, shortened: as §1

[4] = tested on: Pseudomonas aeruginosa ATCC 27853; conditions: ATCC 27853
Procedure, shortened: as §1

[5] = tested on: Enterobacter cloacae 848840; conditions: 848840
Procedure, shortened: as §1

[6] = tested on: Acinetobacter baumannii DSM 30008; conditions: DSM 30008
Procedure, shortened: as §1

[7] = tested on: Escherichia coli ATCC 25922; conditions: ATCC 25922
Procedure, shortened: as §1

[8] = tested on: Klebsiella pneumoniae SSI #3010; conditions: SSI #3010
Procedure, shortened: as §1

| MIC (Escherichia coli 926415) [µg/mL] | MIC [2] [µg/mL] | MIC [3] [µg/mL] | MIC [4] [µg/mL] | MIC [5] [µg/mL] | MIC [6] [µg/mL] | MIC [7] [µg/mL] | MIC [8] [µg/mL] | Pseudomonas aeruginosa ATCC 27853 MIC [4] [µg/mL] | Acinetobacter baumannii DSM 30008 MIC [6] [µg/mL] | Escherichia coli ATCC 25922 MIC [7] [µg/mL] | Klebsiella pneumoniae SSI #3010 MIC [8] [µg/mL] | Structure (SMILES) | Hemolysis at 200 μg/mL [1] [%] |
| --- | --- | --- | --- | --- | --- | --- | --- | --- | --- | --- | --- | --- | --- |
| 0.125 (≈ 0.0524 µM) | 0.125 (≈ 0.0524 µM) | 0.125 (≈ 0.0524 µM) | 0.125 (≈ 0.0524 µM) | 4 (≈ 1.68 µM) | 0.0625 (≈ 0.0262 µM) | 0.03125 (≈ 0.0131 µM) | 0.125 (≈ 0.0524 µM) | – | – | – | – | CC(C)C[C@@H]1NC(=O)[C@@H](CC(C)C)NC(=O)[C@H](CCN)NC(=O)[C@@H](NC(=O)[C@H](CCN)NC(=O)[C@@H](NC(=O)[C@H](CCN)NC(=O)CC[C@@H]2NC(=O)[C@H](CCN)NC(=O)[C@H](Cc3ccc(O)cc3)NC(=O)[C@@H](NC(=O)[C@@H](O)C(C)C)CSSC[C@@H](C(=O)NC(CO)CO)NC(=O)[C@H](C(C)(C)C)NC(=O)[C@H](CO)NC(=O)[C@H](Cc3c[nH]c4ccccc34)NC(=O)[C@H](CCO)NC(=O)[C@@H](CCN)NC2=O)[C@@H](C)O)CCNC(=O)[C@H]([C@@H](C)O)NC(=O)[C@H](CCN)NC(=O)[C@H](CCN)NC1=O [Ex. 95] (I: H-[Hiv]CY[Dab]E[dDab][hSer]WS[Tle]C-{NHCH(CH2OH)2} / II: [Dab]T[Dab][Dab][Dab][dL]L[Dab][Dab]T; disulfide I:2-I:11; amide I:5-II:N; lactam II:4-II:C) | <1 |
| 1 (≈ 0.416 µM) | 0.5 (≈ 0.208 µM) | 4 (≈ 1.66 µM) | – | 1 (≈ 0.416 µM) | – | – | – | 0.125 | 0.125 | 0.0625 | 0.25 | CC(=O)N[C@H](C(=O)N[C@H]1CCCNC(=O)C[C@@H](C(=O)N[C@@H](CO)C(N)=O)NC(=O)[C@H](C(C)C)NC(=O)[C@H](CO)NC(=O)[C@H](Cc2c[nH]c3ccccc23)NC(=O)[C@H](CO)NC(=O)[C@@H](CCN)NC(=O)[C@H](CCC(=O)N[C@@H](CCN)C(=O)N[C@H](C(=O)N[C@@H](CN)C(=O)N[C@H]2CCNC(=O)[C@H]([C@@H](C)O)NC(=O)[C@H](CCN)NC(=O)[C@H](CCN)NC(=O)[C@H](CC(C)C)NC(=O)[C@@H](CC(C)C)NC(=O)[C@H](CCN)NC2=O)[C@@H](C)O)NC(=O)[C@H](CCN)NC(=O)[C@H](Cc2ccc(O)cc2)NC1=O)C(C)C [Ex. 319] (I: Ac-V[Orn]Y[Dab]E[dDab]SWSVDS-NH2 / II: [Dab]T[Dap][Dab][Dab][dL]L[Dab][Dab]T; lactam I:2-I:11, II:4-II:C; amide I:5-II:N) | <1 |
| 0.125 (≈ 0.0506 µM) | 0.03125 (≈ 0.0126 µM) | 0.25 (≈ 0.101 µM) | 0.125 (≈ 0.0506 µM) | 0.0625 (≈ 0.0253 µM) | 0.03125 (≈ 0.0126 µM) | 0.03125 (≈ 0.0126 µM) | 0.0625 (≈ 0.0253 µM) | – | – | – | – | CCCC[C@H](NC(C)=O)C(=O)N[C@H](C(=O)N[C@@H](Cc1ccc(O)cc1)C(=O)N[C@H]1CSSC[C@@H](C(=O)N[C@H](C(=O)N[C@H](C(=O)N[C@H](C(N)=O)[C@@H](C)O)[C@@H](C)O)[C@@H](C)CC)NC(=O)[C@H](Cc2c[nH]c3ccccc23)NC(=O)[C@H](CO)NC(=O)[C@@H](CCN)NC(=O)[C@H](CCC(=O)N[C@@H](CCN)C(=O)N[C@H](C(=O)N[C@@H](CN)C(=O)N[C@H]2CCNC(=O)[C@H]([C@@H](C)O)NC(=O)[C@H](CCN)NC(=O)[C@H](CCN)NC(=O)[C@H]([C@H](O)C(C)C)NC(=O)[C@@H](CC(C)C)NC(=O)[C@H](CCN)NC2=O)[C@@H](C)O)NC1=O)[C@@H](C)O [Ex. 223] (I: Ac-[Nle]TYCE[dDab]SWCITT-NH2 / II: [Dab]T[Dap][Dab][Dab][dL][Leu(3R-OH)][Dab][Dab]T; disulfide I:4-I:9; amide I:5-II:N; lactam II:4-II:C) | <1 |
| 4 (≈ 1.64 µM) | 1 (≈ 0.41 µM) | 2 (≈ 0.819 µM) | 0.5 (≈ 0.205 µM) | 2 (≈ 0.819 µM) | 0.25 (≈ 0.102 µM) | 0.25 (≈ 0.102 µM) | 0.5 (≈ 0.205 µM) | – | – | – | – | CC(=O)N[C@H](C(=O)N[C@H]1CSSC[C@@H](C(=O)N[C@@H](CO)C(=O)OC(C)C)NC(=O)[C@H](C(C)(C)C)NC(=O)[C@H](CO)NC(=O)[C@H](Cc2c[nH]c3ccccc23)NC(=O)[C@H](CO)NC(=O)[C@@H](CCN)NC(=O)[C@H](CCC(=O)N[C@@H](CCN)C(=O)N[C@H](C(=O)N[C@@H](CN)C(=O)N[C@H]2CCNC(=O)[C@H]([C@@H](C)O)NC(=O)[C@H](CCN)NC(=O)[C@H](CCN)NC(=O)[C@H](CC(C)C)NC(=O)[C@@H](CC(C)C)NC(=O)[C@H](CCN)NC2=O)[C@@H](C)O)NC(=O)[C@H](CN)NC(=O)[C@H](Cc2ccc(O)cc2)NC1=O)C(C)C [Ex. 122] (I: Ac-VCY[Dap]E[dDab]SWS[Tle]CS-OiPr / II: [Dab]T[Dap][Dab][Dab][dL]L[Dab][Dab]T; disulfide I:2-I:11; amide I:5-II:N; lactam II:4-II:C) | 1 |
